ChEMBL document CHEMBL1201862, “PubChem BioAssay data set” (2004)
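Five compound concentrations were applied to cells in 96-well plates for 48 hours; endpoints were derived by simple linear interpolation of the resulting dose-response curve. GI50 marks 50% less growth.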 The source made the active and inactive calls. Cut-off read from the data, not from the text of the source: active = GI50 up to about 1.1 µM and inactive = higher.

Key:
Assay in all cases: growth of human tumour cells (NCI), 48 h
[1] = tested on: NCI-H460
[2] = tested on: COLO 205
[3] = tested on: RPMI-8226
[4] = tested on: 786-0
[5] = tested on: SK-OV-3
[6] = tested on: MDA-MB-231
[7] = tested on: HCT-15
[8] = tested on: SK-MEL-28
[9] = tested on: SNB-19
[10] = tested on: M14
[11] = tested on: PC-3
[12] = tested on: NCI/ADR-RES
[13] = tested on: HOP-62
[14] = tested on: SNB-75
[15] = tested on: IGROV-1
[16] = tested on: Hs-578T
[17] = tested on: TK-10
[18] = tested on: DU-145
[19] = tested on: KM12
[20] = tested on: MDA-MB-435
[21] = tested on: MDA-N
[22] = tested on: RXF 393
[23] = tested on: NCI-H522
[24] = tested on: SR
[25] = tested on: HT-29
[26] = tested on: T47D
[27] = tested on: EKVX
[28] = tested on: ACHN
[29] = tested on: SF-268
[30] = tested on: K562
[31] = tested on: BT-549
[32] = tested on: OVCAR-5
[33] = tested on: SW-620
[34] = tested on: Malme-3M
[35] = tested on: SK-MEL-2
[36] = tested on: HCC 2998
[37] = tested on: NCI-H226
[38] = tested on: A498
[39] = tested on: A549
[40] = tested on: MOLT-4
[41] = tested on: CAKI-1
[42] = tested on: HL-60
[43] = tested on: SN12C
[44] = tested on: U-251
[45] = tested on: NCI-H23
[46] = tested on: LOX IMVI
[47] = tested on: UO-31
[48] = tested on: HCT-116
[49] = tested on: MCF7
[50] = tested on: UACC-257
[51] = tested on: OVCAR-3
[52] = tested on: OVCAR-4
[53] = tested on: OVCAR-8
[54] = tested on: SK-MEL-5
[55] = tested on: CCRF-CEM
[56] = tested on: SF-295
[57] = tested on: HOP-92
[58] = tested on: UACC-62
[59] = tested on: SF-539

## O=C(Nc1ccc(Cl)c(Cl)c1)N1N=C2c3ccccc3CCC2C1c1ccc(Cl)cc1 (stereo unspecified)
[1]
  GI50: > 100 µM (inactive)
[2]
  GI50: > 100 µM (inactive)
[3]
  GI50: > 100 µM (inactive)
[4]
  GI50: > 100 µM (inactive)
[5]
  GI50: > 100 µM (inactive)
[6]
  GI50: > 100 µM (inactive)
[7]
  GI50: > 100 µM
[8]
  GI50: > 100 µM (inactive)
[9]
  GI50: > 100 µM (inactive)
[10]
  GI50: > 100 µM (inactive)
[11]
  GI50: > 100 µM (inactive)
[12]
  GI50: > 100 µM (inactive)
[13]
  GI50: > 100 µM (inactive)
[14]
  GI50: > 100 µM (inactive)
[15]
  GI50: 3.01 µM (inactive)
[16]
  GI50: > 100 µM (inactive)
[17]
  GI50: > 100 µM (inactive)
[18]
  GI50: > 100 µM (inactive)
[19]
  GI50: > 100 µM (inactive)
[20]
  GI50: > 100 µM (inactive)
[21]
  GI50: > 100 µM (inactive)
[22]
  GI50: > 100 µM (inactive)
[23]
  GI50: > 100 µM (inactive)
[24]
  GI50: > 100 µM (inactive)
[25]
  GI50: > 100 µM (inactive)
[26]
  GI50: > 100 µM (inactive)
[27]
  GI50: > 100 µM (inactive)
[28]
  GI50: > 100 µM (inactive)
[29]
  GI50: > 100 µM (inactive)
[30]
  GI50: > 100 µM (inactive)
[31]
  GI50: > 100 µM (inactive)
[32]
  GI50: > 100 µM (inactive)
[33]
  GI50: > 100 µM (inactive)
[34]
  GI50: > 100 µM (inactive)
[35]
  GI50: > 100 µM (inactive)
[36]
  GI50: > 100 µM (inactive)
[37]
  GI50: > 100 µM (inactive)
[38]
  GI50: > 100 µM (inactive)
[39]
  GI50: > 100 µM (inactive)
[40]
  GI50: > 100 µM (inactive)
[41]
  GI50: > 100 µM (inactive)
[42]
  GI50: > 100 µM (inactive)
[43]
  GI50: > 100 µM (inactive)
[44]
  GI50: > 100 µM (inactive)
[45]
  GI50: > 100 µM (inactive)
[46]
  GI50: > 100 µM (inactive)
[47]
  GI50: > 100 µM (inactive)
[48]
  GI50: > 100 µM (inactive)
[49]
  GI50: > 100 µM (inactive)
[50]
  GI50: > 100 µM (inactive)
[51]
  GI50: > 100 µM (inactive)
[52]
  GI50: > 100 µM (inactive)
[53]
  GI50: > 100 µM (inactive)
[54]
  GI50: > 100 µM (inactive)
[55]
  GI50: > 100 µM (inactive)
[56]
  GI50: > 100 µM (inactive)
[57]
  GI50: > 100 µM (inactive)
[58]
  GI50: > 100 µM (inactive)
[59]
  GI50: > 100 µM (inactive)

## CCOC(=O)/C(=C\c1c[nH]c2ccccc12)P(=O)(OCC)OCC
[1]
  GI50: 24.5 µM (inactive)
[2]
  GI50: 20.7 µM (inactive)
[3]
  GI50: 33.5 µM (inactive)
[4]
  GI50: 31.3 µM (inactive)
[5]
  GI50: 30.5 µM (inactive)
[6]
  GI50: 27.7 µM (inactive)
[7]
  GI50: 27.7 µM
[8]
  GI50: 36.8 µM (inactive)
[9]
  GI50: 62.7 µM (inactive)
[10]
  GI50: 39.6 µM (inactive)
[11]
  GI50: 17.4 µM (inactive)
[12]
  GI50: 25.3 µM (inactive)
[13]
  GI50: 42.6 µM (inactive)
[14]
  GI50: 26.5 µM (inactive)
[15]
  GI50: 39 µM (inactive)
[16]
  GI50: 42.8 µM (inactive)
[17]
  GI50: 42.6 µM (inactive)
[18]
  GI50: 46.1 µM (inactive)
[19]
  GI50: 33.2 µM (inactive)
[20]
  GI50: 40.9 µM (inactive)
[21]
  GI50: 35.8 µM (inactive)
[22]
  GI50: 33.6 µM (inactive)
[23]
  GI50: 26.8 µM (inactive)
[24]
  GI50: 25.1 µM (inactive)
[25]
  GI50: 28.4 µM (inactive)
[26]
  GI50: 43.8 µM (inactive)
[27]
  GI50: 59.8 µM (inactive)
[28]
  GI50: 41.4 µM (inactive)
[29]
  GI50: 29.5 µM (inactive)
[30]
  GI50: 50.9 µM (inactive)
[31]
  GI50: 25.4 µM (inactive)
[32]
  GI50: 26.2 µM (inactive)
[33]
  GI50: 45.7 µM (inactive)
[34]
  GI50: 18.9 µM (inactive)
[36]
  GI50: 65.3 µM (inactive)
[37]
  GI50: 28.3 µM (inactive)
[38]
  GI50: 28.8 µM (inactive)
[39]
  GI50: 40.5 µM (inactive)
[40]
  GI50: 55.1 µM (inactive)
[41]
  GI50: > 100 µM (inactive)
[42]
  GI50: 37.5 µM (inactive)
[43]
  GI50: 30.5 µM (inactive)
[44]
  GI50: 33.8 µM (inactive)
[45]
  GI50: 29.6 µM (inactive)
[46]
  GI50: 20.6 µM (inactive)
[48]
  GI50: 32.9 µM (inactive)
[49]
  GI50: 50.8 µM (inactive)
[50]
  GI50: 45.3 µM (inactive)
[51]
  GI50: 19.3 µM (inactive)
[52]
  GI50: 23.9 µM (inactive)
[53]
  GI50: 22.3 µM (inactive)
[54]
  GI50: 55.8 µM (inactive)
[55]
  GI50: 16.7 µM (inactive)
[56]
  GI50: 39.9 µM (inactive)
[57]
  GI50: 29.2 µM (inactive)
[58]
  GI50: 32.9 µM (inactive)
[59]
  GI50: 21.9 µM (inactive)
